# In ChEMBL document CHEMBL5223094, “Recent advancements in chromone as a privileged scaffold towards the development of small molecules for neurodegenerative therapeutics” (RSC Med Chem, 2022):
# Key:
# [1] = molecular target: T1, Polyunsaturated fatty acid lipoxygenase ALOX15 (Homo sapiens, UniProt P16050); test: Inhibition of LOX15 (unknown origin)
# T1 sequence (P16050 whole entry): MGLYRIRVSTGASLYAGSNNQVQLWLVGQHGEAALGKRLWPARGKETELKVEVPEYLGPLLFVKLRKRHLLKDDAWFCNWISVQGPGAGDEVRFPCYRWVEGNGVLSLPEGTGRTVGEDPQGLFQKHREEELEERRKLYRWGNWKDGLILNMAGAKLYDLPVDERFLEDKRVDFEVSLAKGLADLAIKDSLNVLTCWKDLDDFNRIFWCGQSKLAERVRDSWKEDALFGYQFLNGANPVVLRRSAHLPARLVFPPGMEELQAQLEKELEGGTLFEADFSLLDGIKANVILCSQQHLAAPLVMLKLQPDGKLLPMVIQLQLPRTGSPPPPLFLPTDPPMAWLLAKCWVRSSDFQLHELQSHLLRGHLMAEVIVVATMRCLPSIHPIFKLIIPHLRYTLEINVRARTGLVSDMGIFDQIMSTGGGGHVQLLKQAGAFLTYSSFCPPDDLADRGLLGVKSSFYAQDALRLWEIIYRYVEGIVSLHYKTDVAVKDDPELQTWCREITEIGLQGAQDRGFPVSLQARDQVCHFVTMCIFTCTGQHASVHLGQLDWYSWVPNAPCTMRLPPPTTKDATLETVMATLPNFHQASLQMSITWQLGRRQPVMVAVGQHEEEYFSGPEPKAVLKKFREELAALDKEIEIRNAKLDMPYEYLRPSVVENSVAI
# [2] = Antioxidant activity assessed as DPPH radical scavenging activity; format: functional
# Acetylcholinesterase = Acetylcholinesterase (Homo sapiens, UniProt P22303); test: Inhibition of recombinant human AChE using acetylthiocholine as substrate preincubated for 15 mins followed by substrate addition and measured after 5 mins by DTNB reagent based Ellman's method
# Cholinesterase [3] = molecular target: T2, Cholinesterase (Homo sapiens, UniProt P06276); test: Inhibition of recombinant human BuChE using butyrylthiocholine as substrate preincubated for 15 mins followed by substrate addition and measured after 5 mins by Ellman's method
# [4] = molecular target: T3, Polyunsaturated fatty acid 5-lipoxygenase (Homo sapiens, UniProt P09917); test: Inhibition of human LOX5 using arachidonic acid preincubated for 10 mins followed by substrate addition by microplate spectrophotometric analysis
# T3 sequence (P09917 whole entry): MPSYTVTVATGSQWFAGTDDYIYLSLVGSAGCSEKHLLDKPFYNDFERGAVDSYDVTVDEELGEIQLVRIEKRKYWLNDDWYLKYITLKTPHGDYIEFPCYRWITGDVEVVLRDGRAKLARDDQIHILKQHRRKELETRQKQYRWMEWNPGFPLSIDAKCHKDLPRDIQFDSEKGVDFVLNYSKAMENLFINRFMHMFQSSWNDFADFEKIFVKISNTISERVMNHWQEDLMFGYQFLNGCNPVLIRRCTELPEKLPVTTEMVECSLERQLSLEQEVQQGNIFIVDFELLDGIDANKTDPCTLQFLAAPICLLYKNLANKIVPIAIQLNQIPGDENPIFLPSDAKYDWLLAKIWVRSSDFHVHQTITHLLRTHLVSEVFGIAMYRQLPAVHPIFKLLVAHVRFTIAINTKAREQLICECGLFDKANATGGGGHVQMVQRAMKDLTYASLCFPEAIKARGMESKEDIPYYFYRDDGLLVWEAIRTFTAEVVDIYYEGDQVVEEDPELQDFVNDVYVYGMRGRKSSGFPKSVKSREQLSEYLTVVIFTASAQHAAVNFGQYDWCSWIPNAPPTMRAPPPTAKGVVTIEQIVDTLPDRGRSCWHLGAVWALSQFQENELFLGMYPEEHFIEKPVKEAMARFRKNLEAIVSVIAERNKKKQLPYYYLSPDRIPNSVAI
# [5] = Inhibition of soybean LOX15 using arachidonic acid preincubated for 5 mins followed by substrate addition and measured after 5 mins by microplate spectrophotometric analysis; parameters: species or system Glycine max
# [6] = Antioxidant activity assessed as DPPH radical scavenging activity incubated for 45 mins by microplate spectrophotometric anlaysis; format: functional
# Beta-secretase 1 = Beta-secretase 1 (Homo sapiens, UniProt P56817); test: Inhibition of recombinant human BACE-1 expressed in baculovirus using Rh-EVNLDAEFK-Quencher as substrate incubated for 60 mins by FRET assay
# Cholinesterase [7] = molecular target: T2, Cholinesterase; test: Inhibition of BuChE (unknown origin)
# [8] = molecular target: Amyloid-beta precursor protein (Homo sapiens) (UniProt P05067); test: Inhibition of self-induced amyloid beta (1 to 42) (unknown origin) aggregation by ThT fluorometric assay; details: concentration not given here
# [9] = molecular target: T3, Polyunsaturated fatty acid 5-lipoxygenase; test: Inhibition of LOX5 (unknown origin)
# [10] = molecular target: T4, Prostaglandin G/H synthase 2 (Homo sapiens, UniProt P35354); test: Inhibition of COX2 (unknown origin)
# T4 sequence (P35354 whole entry): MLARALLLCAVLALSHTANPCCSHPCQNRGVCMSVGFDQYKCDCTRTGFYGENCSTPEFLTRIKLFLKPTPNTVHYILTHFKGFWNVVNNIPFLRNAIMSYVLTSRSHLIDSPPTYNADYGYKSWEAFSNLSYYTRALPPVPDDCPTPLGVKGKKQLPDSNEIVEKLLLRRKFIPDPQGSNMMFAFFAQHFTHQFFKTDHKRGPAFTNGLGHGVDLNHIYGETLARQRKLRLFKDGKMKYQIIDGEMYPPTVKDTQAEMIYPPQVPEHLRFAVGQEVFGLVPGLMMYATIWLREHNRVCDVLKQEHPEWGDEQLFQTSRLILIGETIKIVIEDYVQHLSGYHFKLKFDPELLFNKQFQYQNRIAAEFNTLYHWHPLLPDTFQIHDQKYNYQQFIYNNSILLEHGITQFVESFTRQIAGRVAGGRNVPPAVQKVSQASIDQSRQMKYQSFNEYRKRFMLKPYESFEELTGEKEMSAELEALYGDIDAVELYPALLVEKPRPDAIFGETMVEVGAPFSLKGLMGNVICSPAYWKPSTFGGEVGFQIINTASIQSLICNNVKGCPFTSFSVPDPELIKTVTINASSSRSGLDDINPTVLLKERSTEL
# [11] = molecular target: T4, Prostaglandin G/H synthase 2; test: Inhibition of COX2 (unknown origin) using arachidonic acid as substrate preincubated for 5 mins followed by substrate addition by microplate spectrophotometric analysis
# [12] = molecular target: Amyloid-beta precursor protein (Homo sapiens) (UniProt P05067); test: Inhibition of amyloid beta (unknown origin); details: concentration not given here
# [13] = molecular target: Amyloid-beta precursor protein (Homo sapiens) (UniProt P05067); test: Inhibition of amyloid beta (1 to 42) (unknown origin) aggregation at 50 uM incubated for 24 hrs by ThT fluorometric assay
# [14] = molecular target: T5, Amine oxidase [flavin-containing] A (Homo sapiens, UniProt P21397); test: Inhibition of MAO-A (unknown origin)
# T5 sequence (P21397 whole entry): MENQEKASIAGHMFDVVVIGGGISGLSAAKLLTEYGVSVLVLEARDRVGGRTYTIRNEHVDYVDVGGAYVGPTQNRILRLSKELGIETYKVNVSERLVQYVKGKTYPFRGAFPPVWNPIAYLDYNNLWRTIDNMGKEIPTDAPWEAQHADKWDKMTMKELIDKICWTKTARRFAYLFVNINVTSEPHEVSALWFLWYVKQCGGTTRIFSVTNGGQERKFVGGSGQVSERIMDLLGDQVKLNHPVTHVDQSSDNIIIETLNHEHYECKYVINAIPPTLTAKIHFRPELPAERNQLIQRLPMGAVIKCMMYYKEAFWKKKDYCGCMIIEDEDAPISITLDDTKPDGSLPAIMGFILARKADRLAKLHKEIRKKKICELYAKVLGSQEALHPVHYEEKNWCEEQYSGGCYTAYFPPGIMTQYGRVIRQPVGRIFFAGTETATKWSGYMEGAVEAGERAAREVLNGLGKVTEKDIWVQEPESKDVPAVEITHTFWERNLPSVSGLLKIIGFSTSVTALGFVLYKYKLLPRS
# [15] = molecular target: T5, Amine oxidase [flavin-containing] A; test: Inhibition of recombinant human MAO-A using kynuramine as substrate preincubated for 10 mins followed by enzyme addition and measured after 20 mins by fluorescent microplate reader analysis
# [16] = molecular target: T6, Amine oxidase [flavin-containing] B (Homo sapiens, UniProt P27338); test: Inhibition of recombinant human MAO-B using kynuramine as substrate preincubated for 10 mins followed by enzyme addition and measured after 20 mins by fluorescent microplate reader analysis
# T6 sequence (P27338 whole entry): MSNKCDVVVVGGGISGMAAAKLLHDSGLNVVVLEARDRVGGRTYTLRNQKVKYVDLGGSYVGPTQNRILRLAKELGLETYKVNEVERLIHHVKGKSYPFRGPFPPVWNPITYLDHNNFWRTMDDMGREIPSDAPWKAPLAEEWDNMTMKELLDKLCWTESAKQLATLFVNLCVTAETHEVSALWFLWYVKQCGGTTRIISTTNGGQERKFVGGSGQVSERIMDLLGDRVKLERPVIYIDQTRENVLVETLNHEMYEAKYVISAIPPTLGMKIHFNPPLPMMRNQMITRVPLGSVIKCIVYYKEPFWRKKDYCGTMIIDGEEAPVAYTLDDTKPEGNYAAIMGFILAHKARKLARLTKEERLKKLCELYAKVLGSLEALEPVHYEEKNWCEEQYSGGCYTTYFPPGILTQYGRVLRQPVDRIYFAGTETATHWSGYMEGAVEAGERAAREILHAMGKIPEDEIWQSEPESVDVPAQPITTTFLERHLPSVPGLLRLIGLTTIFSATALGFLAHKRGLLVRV
# Homo sapiens [17] = organism: Homo sapiens; test: Selectivity index, ratio of IC50 for inhibition of recombinant human MAO-A to IC50 for inhibition of recombinant human MAO-B
# [18] = Selectivity index, ratio of Ki for displacement of [3H](+)-pentazocine from human sigma 1 receptor expressed in human HEK293 cells to Ki for displacement of (+)-[3H]DTG from rat sigma 2 receptor; format: cell-based
# Homo sapiens [19] = organism: Homo sapiens; test: Selectivity index, ratio of IC50 for inhibition of recombinant human MAO-B to IC50 for inhibition of recombinant human MAO-A
# [20] = molecular target: T5, Amine oxidase [flavin-containing] A; test: Inhibition of MAO-A (unknown origin) by fluorescence spectrophotometer analysis
# [21] = molecular target: T6, Amine oxidase [flavin-containing] B; test: Inhibition of MAO-B (unknown origin) by fluorescence spectrophotometer analysis
# T2 sequence (P06276 whole entry): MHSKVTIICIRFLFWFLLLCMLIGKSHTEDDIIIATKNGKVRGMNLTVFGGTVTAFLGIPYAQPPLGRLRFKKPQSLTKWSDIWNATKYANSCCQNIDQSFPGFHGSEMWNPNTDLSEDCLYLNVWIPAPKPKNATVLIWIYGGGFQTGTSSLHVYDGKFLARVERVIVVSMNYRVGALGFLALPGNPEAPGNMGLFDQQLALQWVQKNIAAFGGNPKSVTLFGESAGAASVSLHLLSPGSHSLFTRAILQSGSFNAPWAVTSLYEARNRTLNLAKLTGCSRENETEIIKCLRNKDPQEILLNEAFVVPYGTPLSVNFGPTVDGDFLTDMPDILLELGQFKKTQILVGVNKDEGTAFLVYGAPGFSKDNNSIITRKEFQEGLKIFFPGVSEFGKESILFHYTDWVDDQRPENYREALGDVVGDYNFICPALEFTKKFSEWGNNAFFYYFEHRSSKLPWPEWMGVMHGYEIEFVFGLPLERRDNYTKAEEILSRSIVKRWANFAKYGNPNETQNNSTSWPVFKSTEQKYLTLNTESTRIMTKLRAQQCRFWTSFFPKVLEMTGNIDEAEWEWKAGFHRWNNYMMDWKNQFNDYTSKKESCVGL
# Sequence of Amyloid-beta precursor protein (Homo sapiens) (P05067 whole entry): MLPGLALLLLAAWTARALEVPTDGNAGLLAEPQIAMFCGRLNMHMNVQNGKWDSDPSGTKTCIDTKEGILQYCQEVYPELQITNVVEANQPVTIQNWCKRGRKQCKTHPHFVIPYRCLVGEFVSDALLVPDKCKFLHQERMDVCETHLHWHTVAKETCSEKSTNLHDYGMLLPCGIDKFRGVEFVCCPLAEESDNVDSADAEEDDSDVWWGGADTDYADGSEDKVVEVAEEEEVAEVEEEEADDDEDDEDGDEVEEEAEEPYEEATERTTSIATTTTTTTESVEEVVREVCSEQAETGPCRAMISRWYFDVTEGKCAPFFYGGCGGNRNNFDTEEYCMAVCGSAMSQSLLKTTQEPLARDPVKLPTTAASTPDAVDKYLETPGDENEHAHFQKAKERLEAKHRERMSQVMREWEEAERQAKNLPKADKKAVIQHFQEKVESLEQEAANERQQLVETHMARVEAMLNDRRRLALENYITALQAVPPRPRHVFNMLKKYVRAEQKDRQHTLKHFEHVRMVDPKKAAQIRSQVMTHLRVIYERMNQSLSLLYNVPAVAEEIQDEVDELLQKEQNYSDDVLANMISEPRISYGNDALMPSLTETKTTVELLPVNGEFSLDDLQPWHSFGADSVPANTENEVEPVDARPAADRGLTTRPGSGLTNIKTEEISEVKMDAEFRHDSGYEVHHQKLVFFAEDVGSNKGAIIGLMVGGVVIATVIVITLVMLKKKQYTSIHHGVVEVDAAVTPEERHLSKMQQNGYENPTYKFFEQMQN
# Sequence of Acetylcholinesterase (P22303 whole entry): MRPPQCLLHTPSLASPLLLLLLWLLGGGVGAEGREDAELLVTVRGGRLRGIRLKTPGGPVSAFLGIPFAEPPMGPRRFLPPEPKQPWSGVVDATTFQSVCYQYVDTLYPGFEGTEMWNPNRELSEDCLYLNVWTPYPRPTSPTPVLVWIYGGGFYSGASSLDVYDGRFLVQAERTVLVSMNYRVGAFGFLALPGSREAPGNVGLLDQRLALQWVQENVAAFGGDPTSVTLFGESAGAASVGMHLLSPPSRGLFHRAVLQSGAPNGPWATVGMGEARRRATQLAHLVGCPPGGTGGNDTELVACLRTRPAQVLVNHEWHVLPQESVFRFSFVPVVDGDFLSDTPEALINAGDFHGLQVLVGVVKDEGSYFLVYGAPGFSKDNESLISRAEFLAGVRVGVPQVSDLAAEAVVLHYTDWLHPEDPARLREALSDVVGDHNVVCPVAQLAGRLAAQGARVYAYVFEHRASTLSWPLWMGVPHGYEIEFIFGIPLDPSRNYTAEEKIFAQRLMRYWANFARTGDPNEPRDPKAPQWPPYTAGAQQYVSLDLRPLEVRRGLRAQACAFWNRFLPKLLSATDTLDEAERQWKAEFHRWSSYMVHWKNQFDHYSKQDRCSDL
# Sequence of Beta-secretase 1 (P56817 whole entry): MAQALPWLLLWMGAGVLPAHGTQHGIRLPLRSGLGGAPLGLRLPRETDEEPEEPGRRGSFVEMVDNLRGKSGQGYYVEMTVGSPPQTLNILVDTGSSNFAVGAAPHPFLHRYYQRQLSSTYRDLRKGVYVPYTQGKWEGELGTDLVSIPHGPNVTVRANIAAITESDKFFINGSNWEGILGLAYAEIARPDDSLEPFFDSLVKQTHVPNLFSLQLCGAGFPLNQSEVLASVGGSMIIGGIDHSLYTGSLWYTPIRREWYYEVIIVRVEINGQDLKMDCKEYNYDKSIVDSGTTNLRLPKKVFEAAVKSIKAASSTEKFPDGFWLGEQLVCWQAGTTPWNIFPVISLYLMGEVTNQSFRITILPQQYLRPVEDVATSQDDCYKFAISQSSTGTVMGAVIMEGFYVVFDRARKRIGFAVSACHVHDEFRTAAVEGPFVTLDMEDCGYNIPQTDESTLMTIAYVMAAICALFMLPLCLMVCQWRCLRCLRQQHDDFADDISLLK
smiles,measurement,setting,value
COc1ccc(-c2cc3cc4c(=O)c(C=O)coc4cc3o2)cc1,IC50,[1],9.6 µM
same,IC50,[2],18.1 µM
same,IC50,Acetylcholinesterase,10 µM
same,IC50,Cholinesterase [3],5 µM
same,IC50,[4],15 µM
same,IC50,[5],10 µM
same,IC50,[6],18 µM
COc1ccc(-c2oc3cc(Br)c(I)cc3c(=O)c2O)cc1,IC50,Beta-secretase 1,16 µM
O=C(CCCCC1CCSS1)NCc1cn(CCCCOc2ccc3c(=O)ccoc3c2)nn1 (centres undefined),IC50,Cholinesterase [7],8 µM
same,inhibition,[8],13%
O=c1c(/C=N/Nc2ccc(C(F)(F)F)cc2)coc2c1ccc1oc(-c3ccc(Cl)cc3)cc12,IC50,[9],28.5 µM
same,IC50,[10],10.4 µM
same,IC50,Beta-secretase 1,14 µM
same,IC50,Acetylcholinesterase,5 µM
same,IC50,Cholinesterase [3],10 µM
same,IC50,[11],10 µM
same,IC50,[4],29 µM
same,IC50,[5],15 µM
COc1cccc2oc3c(c(=O)c12)[C@@H](O)CC3,inhibition,[12],80.4%
same,inhibition,[13],80%
COc1ccc2oc(-n3cncn3)cc(=O)c2c1,IC50,[14],23 nM
COc1ccc2oc(-n3ccc4ccccc43)cc(=O)c2c1,IC50,[15],320 nM
same,IC50,[16],630 nM
COc1ccc2oc(/C=C/c3ccc(Cl)cc3)cc(=O)c2c1,Ratio IC50,Homo sapiens [17],1500
O=c1ccoc2ccc(OCCCN3CCCCCC3)cc12,Ratio Ki,[18],28
COc1ccc2ccn(-c3cc(=O)c4ccccc4o3)c2c1,IC50,[16],150 nM
same,Ratio IC50,Homo sapiens [19],> 670
O=c1cc(-c2ccc(Cl)cc2)oc2ccc(Cn3cc(Nc4ccc(F)cc4)nn3)cc12,IC50,[20],1600 nM
same,IC50,[21],2100 nM
